Test results reported in patent US12459951B2, “Compounds that interact with RAS superfamily proteins for treatment of cancers, inflammatory diseases, rasopathies, and fibrotic disease” (SHY Therapeutics, LLC, priority 2022, dated 2025).

What was measured:
[1] = system: Smad2/Smad3 phosphorylation; test: Phospho-Smad2/3 Inhibition Assay (western blot), Panc-1; assay type: cell-based, human; conditions: at 10 μM, Panc-1 pancreatic cancer cell line; starred symbols = activation
In short: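 Western blotting of lysates (15-50 μg protein) read phosphorylation of Smad2 Ser465/467 and Smad3 Ser423/425. Before lysis, Panc-1 cells got 1 h of 10 ng/ml TGF-b1 following 3 h compound exposure at 37° C (10 μM final, or serial dilutions for IC50, 0.3% DMSO) after overnight 0.5% FBS starvation.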

Erk1/2 phosphorylation = test: Erk1/2 Phosphorylation Assay (western blot), Panc-1; assay type: cell-based, human; conditions: at 10 μM, * = activation
In short: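 Phospho-Erk1/2 (Thr202/Tyr204) was detected by western blot in lysates of Panc-1 cells (KRas G12D). These had 6 h, 37° C exposure to 10 μM compound or a dilution series for IC50, in 0.3% DMSO. Cells were either starved overnight in 0.5% FBS with a 15-min 1.5 ng/ml EGF pulse, or kept unstimulated in 10% FBS.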

IL6 = test: IL-6 Quantification Assay (ELISA), LPS-stimulated RAW 264.7; assay type: cell-based; set-up: inhibition: dose or concentration left out as unconfirmed; conditions: Mus musculus, RAW264.7; read-out: IL-6: % inh.
TNF-alpha = TNF-alpha Quantification Assay (ELISA), LPS-stimulated RAW 264.7; assay type: cell-based; conditions: Mus musculus, RAW264.7; at 10 μM; read-out: TNFα: % inh.

Row | Structure (SMILES) | % inh of Smad2/3 phosphorylation in Panc-1 [1] | % inh of Erk1/2 phosphorylation in Panc-1 (Erk1/2 phosphorylation) | inhibition (IL6) [%] | inhibition at 10 µM (TNF-alpha) [%]
1 | Cc1c(-c2ccn(C)n2)cn2nc(-c3nccn3C)nc(Nc3cc(-c4cccnc4)[nH]n3)c12 [Compound 264, 5-Methyl-2-(1-methyl-1H-imidazol-2-yl)-6-(1-methyl-1H-pyrazol-3-yl)-N-(5-(pyridin-3-yl)-1H-pyrazol-3-yl)pyrrolo[2,1-f][1,2,4]triazin-4-amine] | A (A = 1-25% inhibition) | B* (26-49% activation) | 75 to 100 | 25 to 49
2 | Cc1c(-c2ccn(C)n2)cn2nc(-c3nccn3C)nc(Nc3cc(-c4ccccn4)[nH]n3)c12 [Compound 265, 5-Methyl-2-(1-methyl-1H-imidazol-2-yl)-6-(1-methyl-1H-pyrazol-3-yl)-N-(5-(pyridin-2-yl)-1H-pyrazol-3-yl)pyrrolo[2,1-f][1,2,4]triazin-4-amine] | A (A = 1-25% inhibition) | A* (1-25% activation) | 75 to 100 | 25 to 49
3 | Cc1c(-c2ccn(C)n2)cn2nc(-c3nccn3C)nc(Nc3cc(-c4ccncc4)[nH]n3)c12 [Compound 266, 5-Methyl-2-(1-methyl-1H-imidazol-2-yl)-6-(1-methyl-1H-pyrazol-3-yl)-N-(5-(pyridin-4-yl)-1H-pyrazol-3-yl)pyrrolo[2,1-f][1,2,4]triazin-4-amine] | D* (D* = 76-100% activation) | D (85-100% inhibition) | 25 to 49 | 0
4 | Cc1[nH]nc(Nc2nc(-c3nccn3C)nn3cc(-c4ccn(C)n4)c(C)c23)c1C [Compound 267, N-(4,5-Dimethyl-1H-pyrazol-3-yl)-5-methyl-2-(1-methyl-1H-imidazol-2-yl)-6-(1-methyl-1H-pyrazol-3-yl)pyrrolo[2,1-f][1,2,4]triazin-4-amine] | B (B = 26-45% inhibition) | D* (85-100% activation) | 50 to 74 | 1 to 24
5 | Cc1c(-c2ccn(C)n2)cn2nc(-c3nccn3C)nc(Nc3cc(C(C)C)[nH]n3)c12 [Compound 268, N-(5-Isopropyl-1H-pyrazol-3-yl)-5-methyl-2-(1-methyl-1H-imidazol-2-yl)-6-(1-methyl-1H-pyrazol-3-yl)pyrrolo[2,1-f][1,2,4]triazin-4-amine] | C (C = 46-75% inhibition) | D* (85-100% activation) | 75 to 100 | 25 to 49
6 | COc1cccc(-c2cn3nc(-c4nccn4C)nc(N[C@H]4C[C@@H](OC)C4)c3c2-c2ccccc2)c1C [Compound 269, 6-(3-Methoxy-2-methylphenyl)-N-((1s,3s)-3-methoxycyclobutyl)-2-(1-methyl-1H-imidazol-2-yl)-5-phenylpyrrolo[2,1-f][1,2,4]triazin-4-amine] | D (D = 76-100% inhibition) | D (85-100% inhibition) | 75 to 100 | 75 to 100
7 | COc1ccc(F)c(-c2cn3nc(-c4nccn4C)nc(N[C@H]4C[C@H](OC)C4)c3c2-c2ccccc2)c1F [Compound 273, 6-(2,6-Difluoro-3-methoxyphenyl)-N-((1r,3r)-3-methoxycyclobutyl)-2-(1-methyl-1H-imidazol-2-yl)-5-phenylpyrrolo[2,1-f][1,2,4]triazin-4-amine] | D (D = 76-100% inhibition) | D (85-100% inhibition) | 75 to 100 | 75 to 100
8 | COc1cccc(-c2cn3nc(-c4nccn4C)nc(N[C@H]4C[C@H](OC)C4)c3c2-c2ccccn2)c1C [Compound 274, 6-(3-Methoxy-2-methylphenyl)-N-((1r,3r)-3-methoxycyclobutyl)-2-(1-methyl-1H-imidazol-2-yl)-5-(pyridin-2-yl)pyrrolo[2,1-f][1,2,4]triazin-4-amine] | D (D = 76-100% inhibition) | D (85-100% inhibition) | 75 to 100 | 75 to 100
9 | CO[C@H]1C[C@H](Nc2nc(-c3nccn3C)nn3cc(-c4ccn(C)n4)c(C4CC4)c23)C1 [Compound 275, 5-Cyclopropyl-N-((1r,3r)-3-methoxycyclobutyl)-2-(1-methyl-1H-imidazol-2-yl)-6-(1-methyl-1H-pyrazol-3-yl)pyrrolo[2,1-f][1,2,4]triazin-4-amine] | B (B = 26-45% inhibition) | 0 (0% inhibition) | 0 | 0
10 | COc1ccnc(Nc2nc(-c3nccn3C)nn3cc(-c4ccn(C)n4)c(C4CC4)c23)c1 [Compound 276, 5-Cyclopropyl-N-(4-methoxypyridin-2-yl)-2-(1-methyl-1H-imidazol-2-yl)-6-(1-methyl-1H-pyrazol-3-yl)pyrrolo[2,1-f][1,2,4]triazin-4-amine] | B (B = 26-45% inhibition) | D* (85-100% activation) | 50 to 74 | 0
